Results: patent publication US6534311B2, “Drosophila melanogaster p70S6 kinase” (Novartis AG, priority 1996, dated 2003)

Experiments:
[1] = system: S6 kinase activity in S2 cells; assay type: cell-based, Drosophila; conditions: S2 cells treated with 100 μM cycloheximide for two hours
Procedure: (§1) Cell extracts are prepared and Drosophila p70^S6K activity is measured as previously described (28) or following immunoprecipitation (Lane, H. A., et al. (1992) EMBO J 11, 1743-1749) with the D20 antibody (2.5 μg).
S2 cells are plated at 5×10^7 cells per 15 cm dish in Schneider's medium supplemented with antibiotic and 10% foetal calf serum. After 24 h, cells are changed to Schneider's medium without serum and after an additional 36 h, 5 plates of cells are treated with 100 μM cycloheximide for two hours with or without pretreatment with […] rapamycin for 15 min. Cell extracts are prepared by dounce homogenisation in Extraction buffer lacking PNPP as described in Reinhard et al., above. Briefly, each extract is centrifuged for 30 min at 3×105 g, filtered through a 0.2 μm membrane (Millipore), and applied at a flow rate of 0.5ml per min to a 1 ml Mono Q column (Pharmacia) equilibrated in Buffer F (Kozma, S.C., et al. (1989) EMBO J 8, 4125-4132). The column is washed with 10 ml of Buffer F, developed at 0.5 ml per min with a 30 ml gradient from 0-0.5M NaCl in the same buffer, and each fraction is diluted 20-fold and assayed for kinase activity. Factions 16-19 are concentrated on 100 μl of FFQ Sepharose and eluted with 300 μl of 0.5M NaCl in Buffer F. […]

[2] = system: Drosophila p70S6K; assay: S6 kinase activity immunoprecipitated with D20 antibody from concentrated Mono Q fractions; assay type: cell-based, Drosophila melanogaster; conditions: cycloheximide-treated S2 cells, D20 immunoprecipitate and Western blot mobility
Procedure: as §1
S2 cells are plated at 5×10^7 cells per 15 cm dish in Schneider's medium supplemented with antibiotic and 10% foetal calf serum. After 24 h, cells are changed to Schneider's medium without serum and after an additional 36 h, 5 plates of cells are treated with 100 μM cycloheximide for two hours with or without pretreatment with […] rapamycin for 15 min. Cell extracts are prepared by dounce homogenisation in Extraction buffer lacking PNPP as described in Reinhard et al., above. […]
To distinguish between these rapamycin sensitive and insensitive S6 kinase activities and to determine whether either represented Drosophila p70^S6K, extracts from cycloheximide-stimulated S2 cells, pretreated with or without rapamycin, are fractionated by Mono Q chromatography. The fractions eluted from the Mono Q column are monitored by A280 and subjected to an in vitro S6 kinase assay. […] The concentrated samples from cells treated with cycloheximide either in the absence or presence of rapamycin pretreatment, are either immunoprecipitated and assayed for S6 kinase activity or analysed on Western blots employing the D20 antibody. […]

Q: `C[C@@H]1C[C@@H]([C@H](O)CC2CC(=O)NC(=O)C2)C(=O)[C@@H](C)C1` [cycloheximide] was tested. Which “increase of S6 kinase activity over basal levels” value [1] did it give?
A: 2.2 fold

Q: And the “activation of Drosophila p70S6K” value [2]?
A: induces the activation
